From patent publication US20200230074A1, “NICOTINE-CONTAINING TRANSPARENT TRANSDERMAL THERAPEUTIC SYSTEM” (LTS Lohmann Theraple-Systeme AG, priority 2017, published 2020) come the findings set out here.

Data set [1] in a line: Analysis of nicotine degradation products in stored samples. Type of data set: physicochemical. The following applies: conclusion from degradation products. As to the method:
In order to check which decomposition products of nicotine cause the brown colour, sample Nic 0007 was analysed.

Data set [2] in a line: Storage of nicotine Eudragit E 100 solutions with antioxidants, visual colour (Pantone Colour Code). Type of data set: physicochemical. The following applies: stored in the dark 4 weeks at 60° C. or 80° C. The source says:
Since polyisobutylenes contain terminal double bonds and therefore have to be stabilised by the antioxidant butyl hydroxytoluene, it was examined whether the avoidance of nicotine discolouration can be achieved by antioxidants. Pharmaceutically acceptable antioxidants were therefore added to nicotine in graded-concentrations in 2 test series to form solutions of Eudragit E 100 (cationic copolymer based on dimethylaminoethyl methacrylate, butyl methacrylate and methyl methacrylate in a ratio of 2:1:1). These solutions were stored in the dark for 4 weeks at 60° C. or 80° C.
Butyl hydroxytoluene (BHT), ascorbyl palmitate and tocopherol were tested as antioxidants.
The samples were examined visually after storage, and the relevant Pantone Colour Code for the colour of the sample was determined. The Pantone Colour Code is an internationally used colour system developed by the company Pantone LLC, USA. As a result it is possible to determine that the antioxidants were unable to suppress the discolouration of the nicotine.

For the compound `CCCCCCCCCCCCCCCC(=O)OC[C@H](O)[C@H]1OC(=O)C(O)=C1O` [ascorbyl palmitate], the decomposition of nicotine result in data set [1] is on record as “does prevent its decomposition”. Moreover, the “suppression of the discolouration of nicotine” value in data set [2] is recorded as “does not prevent the brown colouration of nicotine”.
